Article PMC6853638, “TMC1 is an essential component of a leak channel that modulates tonotopy and excitability of auditory hair cells in mice” (eLife, 2019)
Numbering of substitutions follows the chain as printed. Several values for one entry are separate records, joined by “and”; a condition that tells them apart may be missing. Equal values may be shown once.

Columns and labels:
[1] = target: T1, cysteine-substituted TMC1 constructs (Mus musculus, UniProt Q8R4P5, N447C); experiment: Background current before and after MTSET treatment in Tmc1-knockout OHCs expressing cysteine-substituted TMC1; type: cell-based; conditions: Tmc1-knockout OHCs expressing TMC1-N447C, individual cells
T1 construct: control full-length TMC1 (TMC1_WT); expressed in transfected cells; host or cells: Tmc1-knockout mouse OHCs, injectoporation
T1 sequence (Q8R4P5 1-757 N447C): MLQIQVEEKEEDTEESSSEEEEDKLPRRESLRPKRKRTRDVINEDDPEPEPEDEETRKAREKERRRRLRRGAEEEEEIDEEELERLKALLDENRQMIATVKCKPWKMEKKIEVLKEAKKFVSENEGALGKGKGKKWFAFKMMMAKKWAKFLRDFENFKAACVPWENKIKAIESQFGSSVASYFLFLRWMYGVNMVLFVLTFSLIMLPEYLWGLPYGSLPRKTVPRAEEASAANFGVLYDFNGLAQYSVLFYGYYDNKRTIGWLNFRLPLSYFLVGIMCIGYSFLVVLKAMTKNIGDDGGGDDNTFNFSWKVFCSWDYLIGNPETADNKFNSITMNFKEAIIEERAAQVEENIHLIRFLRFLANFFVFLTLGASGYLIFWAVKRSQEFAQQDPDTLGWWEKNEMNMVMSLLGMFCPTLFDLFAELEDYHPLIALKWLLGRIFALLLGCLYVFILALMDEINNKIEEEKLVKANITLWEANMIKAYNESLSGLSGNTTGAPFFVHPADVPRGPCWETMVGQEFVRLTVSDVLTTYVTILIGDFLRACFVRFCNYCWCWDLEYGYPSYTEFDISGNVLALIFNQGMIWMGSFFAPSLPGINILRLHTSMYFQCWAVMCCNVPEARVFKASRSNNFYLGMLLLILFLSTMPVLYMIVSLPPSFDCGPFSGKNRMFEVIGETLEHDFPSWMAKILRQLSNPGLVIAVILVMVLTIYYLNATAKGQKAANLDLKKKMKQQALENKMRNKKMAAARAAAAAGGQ
Description: (§1) Mouse Tmc1 and Tmc2 cDNAs were cloned into CMV-Script and pCDNA3.1- vectors, respectively. To obtain the Tmc1-deafness vector and amino-acid-substituted Tmc1 constructs, specific primers were designed and used for PCR (Supplementary File 1). […] In brief, the organ of Corti was isolated from P3 mice and cut into three pieces in Dulbecco’s modified Eagle’s medium/F12 with 1.5 μg/ml ampicillin. For electroporation, a glass pipette (2 μm tip diameter) was used to deliver cDNA plasmids (0.2 μg/μl in 1 × Hanks' balanced salt solution) to hair cells in the sensory epithelium. EGFP was used as an indicator for the selection of transfected hair cells. A series of three pulses at 60 V lasting 15 ms at 1 s intervals was applied to cochlear tissues by an electroporator (ECM Gemini X2, BTX, CA). The cochlear tissues were cultured for 1 day in vitro and then used for electrophysiological recording.
(§2) All experiments were performed at room temperature (20–25°C). Briefly, the basilar membrane with hair cells was acutely dissected from neonatal mice. […] The acutely isolated or cultured basilar membrane was used for electrophysiological recording within 1 h. […] Hair cells were recorded with a patch-clamp amplifier (EPC 10 USB and Patchmaster software, HEKA Elektronik, Lambrecht/Pfalz, Germany).
(§3) The sampling rate was 1 kHz for leak current recording, 50 kHz for the IV protocol and current-clamp recording, and 100 kHz for unitary channel recording. The voltage-clamp used a –70 mV holding potential, and the current-clamp was held at 0 pA. Only recordings with a current baseline <20 pA in NMDG solution were used for statistical analysis.

[2] = test system: cysteine-substituted TMC1 constructs; experiment: as above; type: cell-based, mouse; conditions: OHCs expressing any of the six cysteine-substituted TMC1 constructs
Description: as §1, §2, §3

[3] = target: T2, cysteine-substituted TMC1 constructs (Mus musculus, UniProt Q8R4P5, M412C); experiment: as above; type: cell-based; conditions: Tmc1-knockout OHCs expressing TMC1-M412C, individual cells
T2 construct: control full-length TMC1 (TMC1_WT); expressed in transfected cells; host or cells: Tmc1-knockout mouse OHCs, injectoporation
T2 sequence (Q8R4P5 1-757 M412C): T1 sequence (Q8R4P5 1-757 N447C) with M412C, C447N
Description: as §1, §2, §3

[4] = target: T3, TMC1-M412C (Mus musculus, UniProt Q8R4P5, M412C); experiment: MET current under MTSET treatment in Tmc1;Tmc2 double-knockout OHCs expressing TMC1-M412C; type: cell-based
T3 construct: control full-length TMC1 (TMC1_WT); expressed in transfected cells; host or cells: Tmc1;Tmc2 double-knockout mouse OHCs (P1 + 3 DIV), injectoporation

[5] = target: T3, TMC1-M412C; set-up: method as in Pan et al., 2018; conditions: MTSET treatment of M412C; ref Pan et al., 2018; cited from earlier work

T3 sequence (Q8R4P5 whole entry M412C): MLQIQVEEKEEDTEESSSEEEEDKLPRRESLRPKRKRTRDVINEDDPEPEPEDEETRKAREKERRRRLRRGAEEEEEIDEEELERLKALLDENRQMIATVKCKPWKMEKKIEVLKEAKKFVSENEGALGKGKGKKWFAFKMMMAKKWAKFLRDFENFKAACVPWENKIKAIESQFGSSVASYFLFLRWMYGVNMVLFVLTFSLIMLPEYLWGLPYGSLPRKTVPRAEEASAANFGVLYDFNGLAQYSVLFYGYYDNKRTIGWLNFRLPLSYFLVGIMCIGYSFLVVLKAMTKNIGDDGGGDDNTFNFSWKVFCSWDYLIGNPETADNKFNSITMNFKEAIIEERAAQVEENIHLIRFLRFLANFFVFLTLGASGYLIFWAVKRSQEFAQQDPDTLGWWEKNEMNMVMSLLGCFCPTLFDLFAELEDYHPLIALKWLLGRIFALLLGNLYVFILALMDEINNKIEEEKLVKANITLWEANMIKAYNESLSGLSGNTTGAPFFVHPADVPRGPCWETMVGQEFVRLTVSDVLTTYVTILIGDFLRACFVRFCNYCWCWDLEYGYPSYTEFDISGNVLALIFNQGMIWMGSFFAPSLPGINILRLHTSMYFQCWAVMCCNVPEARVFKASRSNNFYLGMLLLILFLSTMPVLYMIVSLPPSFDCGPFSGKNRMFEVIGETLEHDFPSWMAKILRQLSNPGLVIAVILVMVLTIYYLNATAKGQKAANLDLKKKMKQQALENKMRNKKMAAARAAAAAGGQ
T3 sequence (Q4KL25 whole entry partner): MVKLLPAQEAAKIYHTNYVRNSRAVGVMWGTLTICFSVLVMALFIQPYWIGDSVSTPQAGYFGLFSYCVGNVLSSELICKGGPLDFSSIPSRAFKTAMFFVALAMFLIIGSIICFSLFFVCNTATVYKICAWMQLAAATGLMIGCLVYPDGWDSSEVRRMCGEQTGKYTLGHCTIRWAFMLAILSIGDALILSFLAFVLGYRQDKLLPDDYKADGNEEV
T3 sequence (Q8K467 29-153 partner): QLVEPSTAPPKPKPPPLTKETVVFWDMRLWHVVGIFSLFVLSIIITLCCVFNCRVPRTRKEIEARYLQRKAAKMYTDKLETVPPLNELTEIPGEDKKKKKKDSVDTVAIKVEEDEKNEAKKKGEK
T3 sequence (Q9Z309 whole entry partner): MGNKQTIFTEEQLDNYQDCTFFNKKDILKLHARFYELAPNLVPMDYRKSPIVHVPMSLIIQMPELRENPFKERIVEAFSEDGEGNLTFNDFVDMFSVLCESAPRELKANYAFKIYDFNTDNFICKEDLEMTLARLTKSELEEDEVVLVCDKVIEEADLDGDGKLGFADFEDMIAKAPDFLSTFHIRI

C[N+](C)(C)CCSS(C)(=O)=O.[Br-] [MTSET, 2-(trimethylammonium)ethyl methanethiosulfonate, bromide]
amplitude of the background current after MTSET treatment [1]: -12.9811 and -13.0886 and -13.798 and -25.7685 and -27.4817 and -21.0828 | effect on the current baseline [2]: did not, however, change the current baseline | amplitude of the background current after MTSET treatment [3]: -35.9532 and -37.439 and -48.1972 and -25.6217 and -14.3767 and -67.9843 | effect on the MET current amplitude [4]: did change the MET current amplitude | effect on the MET current [5]: reduced the MET current
